Laboratory results published in US9937261B2 (LIPOMEDIX PHARMACEUTICALS LTD., priority 2014, dated 2018).

Tested on: human cervical carcinoma (CaSki) tumor
Experiment: Anti-tumor effect of prodrug and radiation therapy, CaSki tumor-bearing mice (Example 2)
Conditions: 5 Gy irradiation in three fractions plus i.v. drug (prodrug 30 mg/kg, free mitomycin C 3.3 mg/kg), 21 days, FIG. 1
Description: Tumor volume was measured for 21 days and the change in tumor volume (ratio of tumor volume at day zero to tumor volume at indicated day post injection) as a function of days post injection of the chemotherapeutic agent was measured.
Cells from a human cervical carcinoma cell line, CaSki, were injected subcutaneously (1 million cells in 200 μL 1:1 RPMI and matrigel) into the left flank of 8 week old female Nu mice. Two weeks after inoculation, mice were treated three times with 5 Gy irradiation. […] Tumor volume was measured for 21 days in all test mice.

CO[C@@]12[C@H](COC(N)=O)C3=C(C(=O)C(C)=C(N)C3=O)N1C[C@@H]1N[C@@H]12 [free mitomycin C, mitomycin C]
tumor growth (change in tumor volume): little or no tumor growth
